Legend:
[1] = test system: mutant endive plant (Cichorium endivia), having a mutated version of the OPR3 gene; experiment: Reversal of male sterility and pale flower color by treating young flower buds of homozygous OPR3 mutant endive; assay type: in vivo; details: for restoration of male fertility in F2 generation: F2 of cross of endive of the invention x wild-type endive, treatment as described in Example 3; for overcoming male sterility caused by the opr3 mutation: homozygous mutant endive, application to flower buds; for flower color of flowers developed from treated flower buds / male fertility (pollen function and seed set through self-pollination): homozygous mutants, daily spraying with 200 μM (0.2 mM) aqueous solution with 0.025% Zipper surfactant; for flower color of flowers developed from treated flower buds: about 3.5 months, untreated or mock-treated flowers pale (FIG. 2); for male fertility (pollen function and seed set through self-pollination): controls remained male-sterile
Source text: A mutant endive plant (Cichorium endivia), having a mutated version of the OPR3 gene, was obtained by means of chemical mutagenesis and subsequent TILLING screening of about 10,000 M2 plants.
Phenotypically this mutant endive plant was indistinguishable from wild-type endive plants, when the mutation was present in a heterozygous state. […] The pollen grains that developed in such homozygous mutants were unable to germinate and therefore dysfunctional.
Blue was the wild-type flower color in this endive background.

[2] = test system: mutant lettuce plant (Lactuca sativa), having a mutated version of the OPR3 gene; experiment: Reversal of male sterility by spraying young flower buds of homozygous OPR3 mutant lettuce; assay type: in vivo; details: for restoration of male fertility in F2 generation: F2 of cross NCIMB 42060 x wild-type lettuce, treatment as described in Example 1; for seed production through selfing: inflorescences sprayed with 200 μM solution, compared with mock-treated control plants (FIG. 1)
Source text: A mutant lettuce plant (Lactuca sativa), having a mutated version of the OPR3 gene, was obtained by means of chemical mutagenesis and subsequent TILLING screening of about 3,000 M2 plants.
Phenotypically this mutant lettuce plant was indistinguishable from wild-type lettuce plants, when the mutation was present in a heterozygous state. […] The few pollen grains that developed in such homozygous mutants were not functional.
From the early bolting stage the inflorescences were sprayed 5 times per week, for a total of 3 weeks.

[3] = test system: Arabidopsis thaliana with mutations in the OPR3 gene; details: treating flower buds; cited from earlier work

Row | Compound | restoration of male fertility in F2 generation [1] | overcoming male sterility caused by the opr3 mutation [1] | restoration of male fertility in F2 generation [2] | restoration of male fertility [3] | flower color of flowers developed from treated flower buds [1] | flower color of flowers developed from treated flower buds ([1]; listed as MeJA) | male fertility (pollen function and seed set through self-pollination) [1] | male fertility (pollen function and seed set through self-pollination) ([1]; listed as MeJA) | effect of other application methods than spraying ([1]; solution painted onto the surface of young flower buds with a fine brush) | seed production through selfing ([2]; homozygous mutants) | seed production through selfing ([2]; homozygous mutants, listed as MeJA) | restoration of male fertility ([2]; homozygous mutants, young flower buds sprayed with 200 μM (0.2 mM) aqueous solution plus 0.025% Zipper surfactant, 5 times per week for 3 weeks)
1 | CC/C=C\C[C@H]1C(=O)CC[C@@H]1CC(=O)O [jasmonic acid, (3R,7S)-jasmonic acid] | sufficient to restore male fertility | had the same effect | sufficient to restore male fertility | – | – | – | – | – | – | – | – | –
2 | CC/C=C\CC1C(=O)CCC1CC(=O)OC (stereo not drawn) [methyl jasmonate] | sufficient to restore male fertility | could be overcome | sufficient to restore male fertility | Male fertility could be restored | changed to blue | developed into blue flowers | has become male-fertile | produced viable, functional pollen and were able to set seed through self-pollination | comparable effects | has produced seeds through selfing | produced seeds in a subset of their flowers | sufficient to restore male fertility
